As usually defined, the IC50 is the midpoint of a concentration-inhibition curve. By pIC50 is commonly meant −log10 of the IC50, conventionally taken in molar units. Lower therefore signals a high IC50.

For the assay, the target named is T1, rhCRTh2 (Homo sapiens, UniProt Q9Y5Y4).
T1 construct: expressed in transfected cells; host or cells: HEK cells (membrane preparation)
T1 sequence (Q9Y5Y4 1-395): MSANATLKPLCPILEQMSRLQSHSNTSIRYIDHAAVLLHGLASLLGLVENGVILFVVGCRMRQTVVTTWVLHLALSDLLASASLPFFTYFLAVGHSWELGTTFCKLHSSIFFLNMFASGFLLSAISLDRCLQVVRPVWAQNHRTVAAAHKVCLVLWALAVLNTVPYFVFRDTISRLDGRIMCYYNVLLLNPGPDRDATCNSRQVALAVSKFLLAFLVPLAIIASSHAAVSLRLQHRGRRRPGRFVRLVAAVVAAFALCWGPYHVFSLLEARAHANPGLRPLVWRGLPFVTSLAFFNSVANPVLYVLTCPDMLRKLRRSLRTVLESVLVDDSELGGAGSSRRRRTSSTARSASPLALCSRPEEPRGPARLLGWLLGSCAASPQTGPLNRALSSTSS
Put plainly: Ligand binding assay ([3H]PGD2 SPA, HEK cell membranes). As to conditions: [3H]PGD2 binding to membranes of HEK cells expressing rhCRTh2/Gα16, SPA beads, 2 hours at room temperature. The protocol: [^3H]PGD2 was purchased from Perkin Elmer Life Sciences with a specific activity of 100-210 Ci/mmol. All other chemicals were of analytical grade.
HEK cells expressing rhCRTh2/Gα16 were routinely maintained in DMEM containing 10% Fetal Bovine Serum (HyClone), 1 mg/ml geneticin, 2 mM L-glutamine and 1% non-essential amino acids. For the preparation of membranes, the adherent transfected HEKcells were grown to confluence in two layer tissue culture factories (Fisher, catalogue number TKT-170-070E). Maximal levels of receptor expression were induced by addition of […] sodium butyrate for the last 18 hours of culture. The adherent cells were washed once with phosphate buffered saline (PBS, 50 ml per cell factory) and detached by the addition of 50 ml per cell factory of ice-cold membrane homogenisation buffer [20 mM HEPES (pH 7.4), 0.1 mM dithiothreitol, 1 mM EDTA, 0.1 mM phenyl methyl sulphonyl fluoride and 100 μg/ml bacitracin]. […] The final pellet was re-suspended in 4 ml of membrane homogenisation buffer per cell factory used and the protein content determined. […]
All assays were performed in Corning clear bottomed, white 96-well NBS plates (Fisher). […] (The optimum coating concentrations were determined for each batch of membranes) The beads were pelleted by centrifugation (800×g for 7 minutes at 4° C.), washed once with assay buffer (50 mM HEPES pH 7.4 containing 5 mM magnesium chloride) and finally re-suspended in assay buffer at a bead concentration of 10 mg/ml.
Each assay contained 20 μl of 6.25 nM [^3]PGD2, 20 μl membrane saturated SPA beads both in assay buffer and 10 μl of compound solution or 13,14-dihydro-15-keto prostaglandin D2 (DK-PGD2, for determination of non-specific binding Cayman chemical company). […] The assay plate was incubated at room temperature for 2 hours and counted on a Wallac Microbeta liquid scintillation counter (1 minute per well).

`Cc1c(S(=O)(=O)c2ccc(Cl)cc2)c2cc(Cl)ccc2n1CC(=O)O` [Example 2, 5-chloro-3-[(4-chlorophenyl)sulfonyl]-2-methyl-1H-indole-1-acetic acid]: the IC50 is 7.94 nM.
As for “5-chloro-3-[(4-chlorophenyl)sulfonyl]-6-cyano-2-methyl-1H-indole-1-acetic acid [Example 6]”, the pIC50 is 7.
As to `Cc1ccc2c(c1)c([S+]([O-])c1ccc(Cl)cc1)c(C)n2CC(=O)O` (stereo not drawn) [Example 7, 3-[(4-chlorophenyl)sulfinyl]-2,5-dimethyl-1H-indole-1-acetic acid], the IC50 is 251 nM.

The values above are taken from patent publication US7723373B2, “Indole-3-sulphur derivatives” (AstraZeneca AB, priority 2002, dated 2010).
